The record followed here is patent US20240376151A1, “STAPLED PEPTIDES AND METHODS THEREOF” (FOG PHARMACEUTICALS, INC., priority 2022, published 2024).

Read-outs that look alike come from different tables or passages of the source.

Assay [1] has as its target T1, beta-catenin (Homo sapiens, UniProt P35222).
T1 construct: 10 nM full-length β-catenin (Uniprot ID P35222); 6×His-thrombin-T7-TEV (N); made in house; host or cells: E. coli BL21 (DE3) pLysS
The assay is described as follows: Competition FP, beta-catenin vs Axin-derived Helicon probe. It is filed as binding.

For assay [2], the target named is T2, beta-catenin (Homo sapiens, UniProt P35222).
T2 construct: made in house; host or cells: E. coli BL21 (DE3) pLysS
T2 sequence (P35222 134-665): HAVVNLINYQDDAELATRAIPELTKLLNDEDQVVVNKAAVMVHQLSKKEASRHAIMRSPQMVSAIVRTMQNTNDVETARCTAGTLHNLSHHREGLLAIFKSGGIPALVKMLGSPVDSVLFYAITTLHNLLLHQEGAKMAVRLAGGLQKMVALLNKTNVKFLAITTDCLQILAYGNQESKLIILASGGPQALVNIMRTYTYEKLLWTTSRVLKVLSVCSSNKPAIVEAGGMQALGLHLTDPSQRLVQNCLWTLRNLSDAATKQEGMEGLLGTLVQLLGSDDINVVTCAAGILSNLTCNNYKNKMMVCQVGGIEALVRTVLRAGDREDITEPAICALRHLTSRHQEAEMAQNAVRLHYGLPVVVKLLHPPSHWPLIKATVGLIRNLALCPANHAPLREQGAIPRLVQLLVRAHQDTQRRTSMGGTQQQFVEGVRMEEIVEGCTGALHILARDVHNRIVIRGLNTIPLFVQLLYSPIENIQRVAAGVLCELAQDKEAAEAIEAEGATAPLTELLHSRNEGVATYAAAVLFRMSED
The assay is described as follows: SPR binding of Helicons to immobilized beta-catenin. For orientation: In SPR one partner is held on a chip, and binding of the other changes the refractive index at the surface.

Another assay concerns the target CDK2 (Homo sapiens, UniProt P24941). The assay is described as follows: CDK2 kinase activity, luminescence-based assay that detects ADP production. It is filed as biochemical. The source says: Among other things, two distinct clusters of Helicons that bound both CDK2 and CDK2 in complex with its partner CyclinE1, but not to CDK1 or CDK1 in complex with its partner CyclinA2 (C51 and C52). […] In some embodiments, one or more (e.g., 1, 2 or 3) or all residues to the N-terminus side of X^4 are absent. In some embodiments, one or more (e.g., 1, 2 or 3) or all residues to the C-terminus side of X^11 are absent.

The next assay concerns the target T3, VHL-ELOBC (Homo sapiens, UniProt P40337).
T3 construct: VHL (Uniprot ID: P40337, residues 54-213) with an N-terminal 6×His-TEV tag; 6×His-TEV (N); made in house; host or cells: E. coli BL21 (DE3)
The assay is described as follows: Competition FP with VHL-binding fluorescent probe HXC78. As to conditions: n=3.

The target of another assay is PD-L1:PD-1 binding (Homo sapiens, UniProt Q9NZQ7). As to conditions: competition ELISA, n=2. On the technique in general: An ELISA detects its analyte on a solid surface through an enzyme-linked reagent.
The target in assay [3] is T4, PD-L1 (Homo sapiens, UniProt Q9NZQ7). The note with it: analytical SEC and TR-FRET experiments. On the technique in general: Time-resolved FRET reads energy transfer from a long-lived donor to a nearby acceptor.
The target of assay [4] is T4, PD-L1. The note with it: TR-FRET.
In assay [5] the target is T4, PD-L1. As to conditions: SPR.
Assay [6] addresses T1, beta-catenin. The assay is described as follows: Competition FP, beta-catenin vs beta-catenin-binding domain of TCF4. The note with it: read-out: IC50 (μM, TCF).

Usually IC50 stands for the concentration needed to halve the response being measured. As usually defined, the Kd is the concentration at which binding is half-saturated.

At beta-catenin [1], `CC[C@H](C)[C@@H]1NC(=O)[C@H](C)NC(=O)[C@H](C)NC(=O)[C@H](Cc2c[nH]c3ccccc23)NC(=O)[C@H](CCC(=O)O)NC(=O)[C@@H](NC(=O)[C@H](CC(C)C)NC(=O)[C@H](CCC(=O)O)NC(=O)[C@H](CO)NC(=O)[C@H](C)NC(=O)[C@@H]2CCCN2C(=O)[C@H](CC(=O)O)NC(C)=O)CSCC(=O)Nc2ccc(cc2)NC(=O)CSC[C@@H](C(=O)N[C@@H](CC(=O)O)C(=O)N[C@@H](CC(C)C)C(=O)N[C@H](C(N)=O)C(C)C)NC(=O)[C@H](Cc2c[nH]cn2)NC1=O` [FP01822] had an IC50 of 3.7 µM. In addition, the Kd on beta-catenin [2] is 3 µM.
Ac-WWVCAIAAIECSD-NH2 [FP33215]: the “inhibition of the kinase activity of CDK2” value at CDK2 is “neither FP19711 nor FP33215 appeared to inhibit”.
As to `Cc1ncsc1-c1ccc(CNC(=O)[C@@H]2C[C@@H](O)CN2C(=O)[C@@H](NC(=O)C2(C#N)CC2)C(C)(C)C)cc1` [VH298, (2S,4R)-1-((S)-2-(1-Cyanocyclopropanecarboxamido)-3,3-dimethylbutanoyl)-4-hydroxy-N-(4-(4-methylthiazol-5-yl)benzyl)pyrrolidine-2-carboxamide], the “competition with HXC78 for binding VHL-ELOBC” value on VHL-ELOBC is reported as “potently competes”.
As to `Cc1cc(CN[C@H](CO)C(=O)O)c(OCc2cccc(C#N)c2)cc1OCc1cccc(-c2ccc3c(c2)OCCO3)c1C` [BMS-1001], the “inhibition of PD-L1:PD-1 binding” value on PD-L1:PD-1 binding is listed as “inhibits PD-L1:PD-1 binding”. Further, the PD-L1 dimerization entry on PD-L1 [3] was “Evidence of PD-L1 dimerization”. For the same compound, the “induction of PD-L1 dimerization in solution” value on PD-L1 [4] is given as “induce PD-L1 dimerization”. In addition, the “competition with PD-1 for binding to PD-L1” value at PD-L1 [5] was “compete more potently”.
Turning to `CC[C@H](C)[C@H](NC(=O)[C@H](CS)NC(=O)[C@H](CC(=O)O)NC(=O)[C@H](CC(=O)O)NC(=O)[C@H](CCC(N)=O)NC(=O)[C@H](C)NC(=O)[C@@H]1CCCN1C(=O)[C@H](CC(=O)O)NC(C)=O)C(=O)N[C@@H](CC(C)C)C(=O)N[C@@H](C)C(=O)N[C@@H](C)C(=O)N[C@@H](Cc1c[nH]cn1)C(=O)N[C@H](C(=O)N[C@@H](CS)C(=O)N[C@@H](C)C(=O)N[C@@H](CC(C)C)C(=O)N[C@@H](Cc1c[nH]c2ccccc12)C(N)=O)C(C)C` [FP49433], on beta-catenin [6], the IC50 was > 10 µM. Moreover, the Kd at beta-catenin [2] (SPR, beta-catenin, read-out: KD (μM, SPR)) was > 10 µM.
